Data as given in article PMC13184981, “Discovery and Development of a Potent LIMK2 Isoform-Specific Degrader” (ACS Chemical Biology, 2026).

Molecular target: T1, LIMK1 (Homo sapiens, UniProt P53667)
T1 construct: host or cells: HEK293T
Assay: Western blot of endogenous LIMK1 in HuCCT1 cells
Assay type: cell-based
Settings: HuCCT1, 6 h treatment
Procedure: HuCCT1 cell line was cultured in Roswell Park Memorial Institute (RPMI) 1640 medium supplemented with GlutaMAX, 10% fetal bovine serum (FBS), and 1% penicillin/streptomycin. The cell line was maintained in an incubator with 5% CO2 at 37 °C. For the treatment, 3 × 10^5 cells were plated and treated with the compounds and DMSO as the control for 6 h. The cells were then lysed using RIPA buffer (50 mM Tris-HCl pH 7.4, 150 mM NaCl, 1% Triton X-100, 1% NaDOC, 0.1% SDS, 1 mM EDTA), freshly supplemented with protease and phosphatase inhibitor cocktails (Sigma-Aldrich, Darmstadt, Germany). After 1 h incubation on ice, the lysates were centrifuged for 30 min at […], and the protein-containing supernatant was collected. The protein concentrations were determined using Protein Assay Dye Reagent Concentrate (Bradford, Bio-Rad, Hercules, CA, USA) and Pre-Diluted Protein Assay Standards: Bovine Serum Albumin (BSA) Set (Thermo Fisher Scientific, Darmstadt, Germany). Then, equal amounts of protein was mixed with Roti-Load 1 dye (Carl Roth, Karlsruhe, Germany) and 4x Laemmli Buffer (Bio-Rad, Hercules, CA, USA), denatured at 95 °C, and run on NuPAGE 4–12% bis-Tris gels (Thermo Fisher Scientific). Proteins were blotted on methanol-activated PVDF Transfer Membranes (Thermo Fisher Scientific) using the wet transfer method with the transfer buffer (Thermo Fisher Scientific) and 20% methanol. […]

T1 sequence (P53667 whole entry): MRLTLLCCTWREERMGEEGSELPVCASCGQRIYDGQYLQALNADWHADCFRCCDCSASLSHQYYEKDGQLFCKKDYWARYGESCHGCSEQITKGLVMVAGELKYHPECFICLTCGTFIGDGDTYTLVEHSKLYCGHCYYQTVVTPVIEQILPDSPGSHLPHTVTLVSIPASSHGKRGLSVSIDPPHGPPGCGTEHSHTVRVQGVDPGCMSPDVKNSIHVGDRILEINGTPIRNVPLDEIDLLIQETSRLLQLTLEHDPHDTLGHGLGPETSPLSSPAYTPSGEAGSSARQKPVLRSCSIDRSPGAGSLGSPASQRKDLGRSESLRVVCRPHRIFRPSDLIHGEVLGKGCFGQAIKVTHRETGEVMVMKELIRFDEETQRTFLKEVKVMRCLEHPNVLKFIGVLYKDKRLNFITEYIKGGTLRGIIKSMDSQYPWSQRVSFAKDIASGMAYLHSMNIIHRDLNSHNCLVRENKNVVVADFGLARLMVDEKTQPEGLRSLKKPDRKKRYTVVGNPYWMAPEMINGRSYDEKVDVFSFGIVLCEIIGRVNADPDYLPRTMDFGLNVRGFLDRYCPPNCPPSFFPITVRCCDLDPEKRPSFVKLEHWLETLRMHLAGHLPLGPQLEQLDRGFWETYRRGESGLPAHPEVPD

For Cc1c(OCc2cn(CCCCC(=O)Nc3ncc(-c4cc(C(F)F)nn4-c4c(Cl)cccc4Cl)s3)nn2)cccc1N1CCC(=O)NC1=O [22b], the “LIMK1 degradation (Western blot)” value was “LIMK1 protein levels remained unaffected”.
